Measured values taken from patent publication EP2969029B1, “USE OF COSMETICALLY OR DERMATOLOGICALLY SAFE SUBSTITUTED MICHAEL ACCEPTORS FOR THE PREVENTION, REDUCTION OR PROPHYLAXIS OF THE TYROSINASE ACTIVITY OF THE HUMAN SKIN AND/OR THE LIGHTENING OF THE HUMAN SKIN” (Beiersdorf AG, priority 2013, dated 2014).

Target: T1, humane Tyrosinase (Homo sapiens, UniProt P14679)
T1 sequence (P14679 19-529): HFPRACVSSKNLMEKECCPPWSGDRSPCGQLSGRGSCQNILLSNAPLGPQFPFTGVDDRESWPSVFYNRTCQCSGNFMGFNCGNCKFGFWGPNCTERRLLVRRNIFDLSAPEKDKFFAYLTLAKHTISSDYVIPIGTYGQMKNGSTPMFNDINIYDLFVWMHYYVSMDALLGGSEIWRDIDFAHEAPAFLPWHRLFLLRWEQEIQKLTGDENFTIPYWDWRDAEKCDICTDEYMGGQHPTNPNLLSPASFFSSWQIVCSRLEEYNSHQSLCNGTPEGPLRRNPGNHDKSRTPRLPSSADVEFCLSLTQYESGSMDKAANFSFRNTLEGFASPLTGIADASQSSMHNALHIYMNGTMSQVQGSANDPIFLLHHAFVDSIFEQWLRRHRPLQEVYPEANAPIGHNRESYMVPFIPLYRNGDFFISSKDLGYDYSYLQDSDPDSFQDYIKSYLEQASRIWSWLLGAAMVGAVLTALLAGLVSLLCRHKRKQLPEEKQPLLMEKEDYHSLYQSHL
Test: Enzyme test: conversion of L-DOPA to L-dopaquinone by human tyrosinase, MBTH detection, absorption at 490 nm
Type: biochemical
Conditions: Inhibition der Tyrosinaseaktivität, substrate L-DOPA

SMILES	EC50 [µM]
CC1CCC(=CC(=O)O)CC1 (stereo not shown) [2-(4-Methyl-1-cyclohexyliden)essigsäure]	6540
COc1ccc(C(=O)O)c(O)c1 [2-Hydroxy-4-methoxy Benzoesäure]	2660
CCCc1c[nH]c(=S)[nH]c1=O [5-Propyl-2-thioxo-2,3-dihydropyrimidin-4(1H)-on]	494
O=C(O)/C=C/c1c[nH]c2ccccc12 [(E)-3-(1H-indol-3-yl)acrylsäure]	833
O=C(O)/C=C/c1ccc(O)c(O)c1 [(E)-3-(3,4-dihydroxyphenyl)acrylsäure]	1370
O=C(O)/C=C/c1ccco1 [(E)-3-(furan-2-yl)acrylsäure]	166
O=C(O)/C=C/c1cccnc1 [(E)-3-(pyridin-3-yl)acrylsäure]	634
O=C(O)/C=C/c1ccncc1 [(E)-3-(pyridin-4-yl) acrylsäure]	697
O=C(O)/C=C/c1cccs1 [(E)-3-(thiophen-2-yl)acrylsäure]	32
O=C(/C=C/c1ccc(O)cc1)NCCc1c[nH]c2ccc(O)cc12 [(E)-N-(2-(5-hydroxy-1H-indol-3-yl)ethyl)-3-(4-hydroxyphenyl)acrylamid]	515
COc1ccc(C(=O)/C=C(\O)c2ccc(C(C)(C)C)cc2)cc1 [(Z)-3-(4-(tert-butyl)phenyl)-3-hydroxy-1-(4-methoxyphenyl)prop-2-en-1-on]	1550
C=CCOC(=O)C=Cc1ccccc1 [Allyl cinnamat]	2340
O=C(OCc1ccccc1)c1ccccc1O [Benzyl 2-hydroxybenzoat]	378
O=C(OCc1ccccc1)c1ccccc1 [Benzyl benzoat]	998
O=C(C=Cc1ccccc1)OCc1ccccc1 [Benzyl cinnamat]	260
O=C(OC1CCCCC1)c1ccccc1O [Cyclohexyl 2-hydroxybenzoat]	547
CCOC(=O)C=Cc1ccccc1 [Ethyl cinnamat]	2590
CCCCCCOC(=O)c1ccccc1O [Hexyl 2-hydroxybenzoat]	4230
COc1ccc(C=CC(=O)OCCC(C)C)cc1 [Isoamyl p-Methoxycinnamat]	358
C/C=C/C=C/C(=O)O [Kaliumsorbat]	1530
COC(=O)c1cc(O)ccc1O [Methyl 2,5-Dihydroxybenzoat]	2450
O=C(O)c1ccccc1 [Natrium Benzoat]	1440
C=COC(=O)C=Cc1ccccc1 [Vinyl cinnamat]	2610
O=CC=Cc1ccccc1 [Zinnamaldehyd]	211
COc1cc(/C=C/C(=O)O)ccc1O [trans-Ferulasäure]	2210
